Assay results: patent publication US9669005B2, “Use of naringenin in preparing drugs for preventing and/or treatment abdominal aortic aneurysm” (priority 2013, dated 2017)

Columns and labels:
Assay type in all cases: in vivo
[1] = tested on: abdominal aortic aneurysms in C57BL/6J mice with CaPO4 daubed infrarenal arteries; test: Abdominal aortic aneurysm model induced by CaPO4 daubed infrarenal aortas, naringenin or doxycycline gavage; settings: CaPO4 daubed C57BL/6 mice, daily gavage 7 days
Experimental: 12-week old of male C57BL/6 mice were anesthetized via intraperitoneal injection of 0.1% pentobarbital sodium (injection according to body weight, […]). Infrarenal abdominal aortas were separated, and the separated infrarenal abdominal aortas were packaged by gauze (1 cm in width×3 cm in length) soaked in 0.5 M CaCl2 solution. After 10 minutes, the gauze was removed, gauze soaked in PBS was instead used to package the blood vessel for 5 min. CaCl2+and PO4^−3 in PBS can form CaPO4 crystal, that is, corresponding to daubing CaPO4 to the blood vessel. After packaging the blood vessel with gauze soaked in NaCl for 10 minutes, gauze soaked in PBS is instead used for 5 min, serving as NaCl daubed control group.
Gavage was started at the first day after surgery, and water, naringenin (50 mg/kg) (Sigma-Aldrich, St. Louis, Mo.) or doxycycline (100 mg/kg) (Sigma-Aldrich, St. Louis, Mo.) gavage were given on mice daily. Materials were removed from the mice 7 days after gavage. Mice were weighed, and blood was drawn from inner canthus by capillary, after centrifuged for 10 minutes at 6000 rotations, the supernatant was removed and blood fat was measured (kit is purchased from BIOSINO company). Then perfusion and washing were performed on mice using PBS. Blood vessels were separated, and four blood vessels were randomly chosen for each group for photographing. The results were shown in FIG. 1, wherein, NaCl was the group of daubing NaCl (n=11), CaPO4 was the group of daubing CaPO4 plus water feed (n=12), CaPO4+NGN was the group of daubing CaPO4 μlus naringenin gavage (n=11), and CaPO4+Dox was the group of daubing CaPO4 μlus doxycycline gavage (n=11).
The blood vessels were sliced, and the change of the diameters in infrarenal abdominal aortas of mice were identified by H.E. staining. […] The data in FIG. 2A were an average value±standard deviation.
The fracture degree of elastic lamina is also an index showing the severity of abdominal aortic aneurysms. The degradation of elastic lamina is divided into four grades. The first grade means that the degradation of elastic lamina is less than 25%, with the second grade of 25%-50%, the third grade of 50%-75%, and the fourth grade means the fracture is more than 75%. We used Gomori staining to identify the fracture situation of elastic lamina of infrarenal abdominal aortas of mice. […] The data in FIG. 2B were an average value±standard deviation.

[2] = tested on: macrophages and leukocytes in adventitia in vascular walls; test: Immunohistochemical staining of inflammatory cells (Mac3, CD45) in vascular walls, CaPO4 model; settings: CaPO4 daubed mice, FIG. 3A
Text: In the onset of abdominal aortic aneurysm, inflammatory cell infiltration of vascular walls is a common feature. We used histochemical staining to identify inflammatory cells infiltrated in vascular walls. Mac3 is the result of immumohistochemical staining on anti-Mac3 specific antibody, representative of macrophage, and CD45 is the result of immumohistochemical staining on anti-CD45 specific antibody, representative of leukocyte.

matrix metalloproteinase = test: In situ zymography, CaPO4 model; settings: CaPO4 daubed mice; FIG. 4A
Experimental: After the aortas of mice were perfused with PBS, fresh tissue was directly embedded with OCT, put in liquid nitrogen for freezing, and then continuously sliced. Firstly, washing was performed with PBS for 3 min, thrice. A fluorescently labeled DQ-gelation-FITC substrate (Sigma-Aldrich, St. Louis, Mo.) was incubated 1 hour at 37° C. Under normal circumstances, fluorescent label for the substrate was packaged, so there is no fluorescence; after activated gelatinase degraded gelatin, green fluorescent label would be exposed. After the section was incubated, washing was performed with PBS for 3 min, thrice, and then the section was sealed. Immunofluorescence confocal microscopy was used to irradiate. The stronger fluorescence was, which means, the stronger activity of matrix metalloproteinase was.

[3] = tested on: inflammatory cell (macrophage and leukocyte) in adventitia; test: Immunofluorescent staining of inflammatory cells (Mac3, CD45), angiotensin II model; settings: AngII ApoE-/- mice; naringenin gavage vs water; FIG. 7A
Text: CD45 and Mac3 were results of immunofluorescent staining on […].

[4] = tested on: IL-6, MCP-1, IL-10, TNF-α and IFN-γ in plasma; test: Inflammatory factors in plasma by flow kit, angiotensin II model; settings: AngII ApoE-/- mice, naringenin gavage, FIG. 7B
Experimental: Eyeballs of mice were removed and blood was drawn, 20 μl of heparin was added into the blood, after centrifuged at 6000 rotations and 4[…] for 10 minutes, the supernatant was aspirated. 10 μl of supernatant was taken, and 10 μl of beads were added, and then 10 μl of PE was added, washed twice with lotion after incubating for 2 hours at room temperature, and then 200 μl of lotion is added. Sorting was performed in the manner of up-flowing after blending (wherein, the flow kits of inflammatory factors of mice were purchased from BD Company).

NMP-9 and NMP-2 = test: Gelatin zymography, angiotensin II model; settings: AngII ApoE-/- mice; naringenin gavage; FIG. 8B
Experimental: After extravasated blood in fresh removed blood vessels of infrarenal site in abdominal aortas of mice were cleared, and fat and connective tissues were removed, and blood vessels were cut into 1 cm ring, and put into 24-well plate. Blood vessels were cultured for 24 hours using 0.5 ml serum-free medium with high glucose. After the cultured supernatant protein was quantified, mercaptoethanol-free protein sample loading buffer was added, cryopreserved at −80° C. Water was used to prepare gelatin (Sigma-Aldrich, St. Louis, Mo.) into a concentration of 10 mg/ml, which was added to separation gel of protein electrophoresis according to the proportion of 1:10, causing the final concentration of gelatin as 1 mg/ml. Electrophoresis was performed in a voltage of 80V at 4° C. The gel was put into 0.25% Trixon-100 solution, and washing was performed twice in 30 minutes. […] Incubated gel was put into Coomassie brilliant blue to stain for 1-2 hours at room temperature, washed for 30 minutes with a solution having 30% methanol and 10% glacial acetic acid, a solution having 20% methanol and 10% glacial acetic acid, and a solution having 10% methanol and 5% glacial acetic acid, respectively, and then analyzed with Odyssey infrared fluorescence scanning system (LI-COR Biosciences, Lincoln, Nebr.). […]

Question: How did the “fracture of elastic lamina of infrarenal abdominal aortas (Gomori staining)” value ([1]; FIG. 2B) turn out when `O=C1C[C@@H](c2ccc(O)cc2)Oc2cc(O)cc(O)c21` [naringenin] was run?
Answer: The value was “reverse the effect of CaPO4”.

Question: And the “diameters of infrarenal abdominal aortas (H.E. staining)” value ([1]; naringenin 50 mg/kg, doxycycline 100 mg/kg, average ± SD, CaPO4 + water 1.40±0.19, NaCl 0.77±0.06)?
Answer: The value was 1.03±0.18 mm.

Question: And the “incidence rate and degree of bulge of blood vessels at infrarenal site” value ([1]; naringenin 50 mg/kg, doxycycline 100 mg/kg, vascular photos FIG. 1)?
Answer: The value was “reduce the incidence rate and degree of bulge”.

Question: What about the “infiltration of macrophages and leukocytes in adventitia in vascular walls” value [2] of the same compound?
Answer: Its value is “reduce such effect”.

Question: What about the “activity of matrix metalloproteinase (in situ zymography)” value (matrix metalloproteinase) of the same compound?
Answer: Its value is “reduce the activity of matrix metalloproteinase induced by CaPO4 daubing”.

Question: And the “infiltration of inflammatory cell (macrophage and leukocyte) in adventitia” value [3]?
Answer: The value was “significantly reduce”.

Question: What about the IL-10 in plasma [4] of the same compound?
Answer: Its IL-10 in plasma is “does not change significantly”.

Question: What about the “TNF-α and IFN-γ in plasma” value [4] of the same compound?
Answer: Its value is “do not change”.

Question: And the “levels of IL-6 and MCP-1 in plasma” value ([4]; n=11, P<0.05)?
Answer: Its value is “significantly decrease”.

Question: What about the “active form of NMP-9 and NMP-2 (gelatin zymography)” value (NMP-9 and NMP-2) of the same compound?
Answer: Its value is “do not change significantly”.

Question: And the “zymogen form of MMP-9 (gelatin zymography)” value (NMP-9 and NMP-2)?
Answer: The value was “significantly decreases”.
